Results as given in patent US9050371B2 (Eli Lilly and Company, priority 2008, dated 2015).

Key:
[1] = calculated from published PK profiles; cited from earlier work
healthy volunteers = assay: Euglycaemic glucose clamp (glucose infusion rate) after single SC dose in healthy volunteers; assay type: in vivo, human
Experimental: In all treatment periods, subjects undergo a euglycaemic clamp procedure for up to 24/36 hours following each insulin compound injection. Glucose infusion rates (GIR) are adjusted to maintain euglycaemia, with the documented GIR over time providing the GD measure of insulin action. The aim of the euglycaemic glucose clamp is to maintain euglycaemia through glucose infusion after the administration of a dose of an insulin compound. It is assumed that endogenous insulin secretion and hepatic glucose output are minimal and that any glucose that is translocated out of the glucose space (i.e., glucose metabolized) is the direct consequence of the administered exogenous insulin. The GIR in this case will be the glucodynamic (GD) measure of the insulin action over time. All glucose clamp studies are performed after an overnight fast of approximately 8 hours. On the morning of the study, a small catheter is placed into a vein of one arm, ideally in the ante-cubital fossa, for administration of 20% dextrose solution (buffered to near neutral pH) under the control of a volumetric pump. Another catheter is placed, ideally in the wrist or hand for venous glucose sampling. This area is heated with a warming device to approximately 55-60° C. for sampling arterialized venous blood. Blood samples are obtained at the bedside for immediate determination of whole blood glucose concentrations using an automated glucose oxidase technique. After basal blood sampling and a stabilization period of approximately 30 minutes, each subject receives a dose of insulin compound administered subcutaneously. The start of the subcutaneous injection of an insulin compound is defined as time zero. Following completion of dosing, in conjunction with frequent blood sampling for measurement of blood glucose, glucose is infused intravenously at a variable rate in order to maintain euglycaemia for up to 24 or 36 hours after insulin administration.
Blood sampling occurs approximately every 10 minutes for approximately 30 minutes prior to dosing and continued every 5-10 minutes for the first 2 hours after dosing (with the option to sample as frequently as every 2.5 minutes), and then reduced to 10-30 minute intervals up to the end of clamp.
During the glucose clamp, the glucose infusion rate is adjusted to maintain a pre-determined target blood glucose concentration for the individual subject. Preferably, the target concentration is close to the fasting blood glucose. The aim of the glucose clamp procedure is to maintain the blood glucose concentrations within +5% of the pre-dose target value, which is defined as 5 mg/dL below the mean fasting blood glucose. Thus, blood glucose concentrations are kept constant while the GIR varied. […]

Q: For glargine, which “peak-trough (PT) ratio” value [1] is on record?
A: 1.2-2.6

Q: Which results are given for “LY: 20 kDa PEGylated insulin lispro, about 95% or more at B28 and 5% or less at A1, prepared as in Example 9”?
A: GIR profile shape (healthy volunteers; Part C, 0.5 mg/kg): “peakless”; time GD maintained (healthy volunteers; Part C, 0.5 mg/kg): greater than 36 hours; GIR compared with peak GIR response for glargine (healthy volunteers; Part C, 0.5 mg/kg, glargine 0.5 U/kg, data not shown): exceeded the peak GIR response for glargine; duration of action compared with insulin glargine (healthy volunteers; humans, FIG. 2: LY 0.225 mg/kg, glargine 0.5 U/kg): longer than that of insulin glargine
